Reference: patent publication US6599906B1, “Method of local anesthesia and analgesia” (priority 2000, dated 2003)
Where “and” joins values, the source holds several entries; their conditions need not be identical. Equal entries are not always repeated. Where two headings read alike, the source gives them in different places.

Legend:
[1] = system: pain induced by tooth pulp stimulation; type: in vivo, New Zealand white rabbits
[2] = system: tooth pain; details: background statement, patients; cited from earlier work
[3] = system: rabbits; details: rabbit, in vivo
[4] = system: rabbits; details: rabbit, in vivo; remark: listed apart in the source
[5] = system: rabbits; details: rabbit, in vivo; remark: listed apart in the source
[6] = system: pain induced by tooth pulp stimulation; design: species or system rabbits; details: rabbit, in vivo; read-out: EC50 value and 95% confidence interval for dental local analgesia

For `CCN(CC)CC(=O)Nc1c(C)cccc1C` [lidocaine], the “Percentage change in pain-inducing threshold voltage” value (“Percentage change” below) ([1]; rabbit, in vivo) was 30 ± 29% and 28 ± 36% and 26 ± 30% and 20 ± 32% and 24 ± 32% and 17 ± 21%, the “effect on the threshold voltage compared to the solvent control, in words” value ([1]; rabbit, in vivo) was “markedly increased the threshold voltage” and the “synergistic activity with TTX, in words” value ([1]; rabbit, in vivo) was “did not show a similar synergistic activity”.

For `CCN(CC)CCOC(=O)c1ccc(N)cc1` [procaine], the “Percentage change” value ([1]; 2% anesthetic, 20 μL to tooth pulp cavity, 10 min) was −2 ± 20%, the “Percentage change” value ([1]; 2% anesthetic, 20 μL to tooth pulp cavity, 20 min) was −2 ± 20% and the “Percentage change” value ([1]; 2% anesthetic, 20 μL to tooth pulp cavity, 30 min) was −4 ± 23%. The “Percentage change” value ([1]; 2% anesthetic, 20 μL to tooth pulp cavity, 40 min) was −3 ± 22%, the “Percentage change” value ([1]; 2% anesthetic, 20 μL to tooth pulp cavity, 50 min) was −2 ± 28% and the “Percentage change” value ([1]; 2% anesthetic, 20 μL to tooth pulp cavity, 60 min) was −1 ± 26%. The “effect on the threshold voltage compared to the solvent control, in words” value ([1]; rabbit, in vivo) was “no clear effect on the threshold voltage” and the “period of partial pain relief as topical anesthetic for tooth pain” value [2] was “about 1 hour”.

In the case of `CCCCNc1ccc(C(=O)OCCN(C)C)cc1` [tetracaine], the “Percentage change” value ([1]; 1% tetracaine (equal to 33 mM), 20 μL to tooth pulp cavity, 10 min) is reported as 27 ± 30%, the “Percentage change” value ([1]; 1% tetracaine (equal to 33 mM), 20 μL to tooth pulp cavity, 20 min) is reported as 32 ± 38% and the “Percentage change” value ([1]; 1% tetracaine (equal to 33 mM), 20 μL to tooth pulp cavity, 30 min) is reported as 29 ± 31%. The “Percentage change” value ([1]; 1% tetracaine (equal to 33 mM), 20 μL to tooth pulp cavity, 40 min) was 32 ± 22%, the “Percentage change” value ([1]; 1% tetracaine (equal to 33 mM), 20 μL to tooth pulp cavity, 50 min) was 22 ± 15% and the “Percentage change” value ([1]; 1% tetracaine (equal to 33 mM), 20 μL to tooth pulp cavity, 60 min) was 16 ± 18%. For the same compound, the “Percentage change” value ([1]; Table 7, 1% tetracaine, 20 μL to tooth pulp cavity, 15 min) was 27 ± 30%, the “Percentage change” value ([1]; Table 7, 1% tetracaine, 20 μL to tooth pulp cavity, 45 min) was 32 ± 22% and the “effect on the threshold voltage compared to the solvent control, in words” value ([1]; rabbit, in vivo) was “markedly increased the threshold voltage”. For the same compound, the “period of partial pain relief as topical anesthetic for tooth pain” value [2] was “about 1 hour”.

For `NC1=N[C@H](O)[C@H]2[C@H]3O[C@]4(O)O[C@@H]([C@@H](O)[C@@]2(N1)[C@@H]4O)[C@]3(O)CO` [tetrodotoxin, Tetrodotoxin], the ALP [3] was 69 ± 17 U/L and 71 ± 23 U/L, the ALT [3] was 67 ± 43 U/L and 53 ± 19 U/L and the BUN [3] was 8.4 ± 0.9 mmol/L and 8.5 ± 1.7 mmol/L. The CO2 in serum [3] was 26.4 ± 1.2 mmol/L and 30.0 ± 2.5 mmol/L, the “Ca^2+ in serum” value [3] was 3.26 ± 0.18 mmol/L and 3.34 ± 0.12 mmol/L and the Cre [3] was 109 ± 12 µmol/L and 99 ± 6 µmol/L. The GTP [3] was 5.2 ± 1.3 U/L and 5.7 ± 2.1 U/L, the HCT [3] was 38.5 ± 3.4% and 33.6 ± 1.9% and the HGB [3] was 12.4 ± 1.0 g/dL and 11.3 ± 0.6 g/dL. The IP [3] was 1.66 ± 0.23 mmol/L and 1.46 ± 0.40 mmol/L, the “K^+ in serum” value [3] was 3.8 ± 0.3 mmol/L and 3.8 ± 0.1 mmol/L and the LAP [3] was 109 ± 11 µmol/L and 108 ± 10 µmol/L. For the same compound, the MCH [3] was 22.2 ± 1.4 pg and 22.5 ± 1.1 pg, the MCHC [3] was 32.4 ± 1.3 g/dL and 33.6 ± 0.6 g/dL and the MCV [3] was 68.5 ± 2.8 fL and 66.9 ± 2.1 fL. The “Na^+ in serum” value [3] was 141.1 ± 1.1 mmol/L and 141.7 ± 1.8 mmol/L, the PLT [3] was 141 ± 120 ×10^3/μl and 159 ± 37 ×10^3/μl and the TBA [3] was 13.5 ± 12.0 U/L and 14.5 ± 9.2 U/L. The TP [3] was 60 ± 6 g/L and 57 ± 6 g/L, the WBC [3] was 4.2 ± 1.2 ×10^3/μl and 6.6 ± 2.4 ×10^3/μl and the “effect on the blood cellular or biochemical parameters, in words” value [3] was “did not have any significant effect”. The “onset of the effect of TTX increasing the threshold voltage” value ([1]; rabbit, in vivo) was 5 min, the “time at which peak of effect on threshold voltage was reached” value ([1]; rabbit, in vivo) was 1 h and the “RR (respiratory rate)” value [4] was 99 ± 11 and 102 ± 2 and 102 ± 6 and 91 ± 10 and 94 ± 12 and 99 ± 5. The “effect on ECG, in words” value [4] was “did not suggest any significant effect”, the “effect on heart rate or respiratory rate, in words” value [4] was “did not significantly modify the heart rate or respiratory rate” and the “rabbits manifesting increased excretion in the respiratory tract” value [5] was 4 out of 10. For the same compound, the EC50 [6] was 1040 ± 30 µM.
